Measurements from US20240343694A1, “PYRIMIDINE DERIVATIVE, METHOD FOR PREPARING SAME, AND PHARMACEUTICAL COMPOSITION FOR PREVENTING OR TREATING CANCER COMPRISING SAME AS ACTIVE INGREDIENT” (KOREA RESERARCH INSTITUTE OF CHEMICAL TECHNOLOGY, priority 2021, published 2024).

Tests used:
HER2 A775_G776insYVMA = HER2 A775_G776insYVMA (Homo sapiens (Human), UniProt P04626, INS775YVMA); assay: HTRF inhibitory activity against HER2 mutant enzyme; assay type: biochemical; settings: recombinant enzyme, 37° C. for 2 hours
Method: The activity of the compounds of the present invention against HER mutant enzymes was measured using the HTRF system purchased by Cisbio as follows. As a HER2 mutant enzyme, the HER2 A775_G776insYVMA mutant enzyme was used by purchasing a recombinant protein provided by Carna Biosciences.
(§1) The composition of the assay buffer used for activity measurement was 50 mM tris-HCl pH 7.5, 100 mM NaCl, 7.5 mM MgCl2, 3 mM KCl, 0.01% tween 20, 0.1% BSA, and 1 mM DTT. In addition thereto, the enzymatic reaction was performed using a peptide substrate labeled with ATP at a concentration of […] and biotin at a concentration of […]. The analysis of the activity inhibitory effect of the compounds on HER2 A775_G776insYVMA mutation was performed according to the following method. • Component 1:4 μL of HER2 A775_G776insYVMA mutant enzyme • Component 2:2 μL of compound solution • Component 3:4 μL of ATP and a biotin labeled peptide
The enzyme reaction begins by first mixing component 1 and component 2 and then adding component 3 thereto. After the reaction at 37° C. for 2 hours, […] of a measurement solution consisting of streptavidin-XL665 and a europium-labeled anti-phosphotyrosine antibody purchased from Cisbio was added to the enzyme reaction solution and reacted at room temperature for 1 hour. […] The measured values at 7 compound concentrations were analyzed using the Prism program (version 5.01, Graphpad Software, Inc.), and the IC50 (μM) values, which are measures of the compounds' inhibitory ability, were calculated.

EGFR del19 = EGFR del19 (Homo sapiens (Human), UniProt P00533, DEL746-750); assay: HTRF inhibitory activity against EGFR mutant enzyme (EGFR del19); assay type: biochemical; settings: recombinant enzyme, 37° C. for 2 hours
Method: (§2) The activity of the compounds of the present invention against EGFR mutant enzymes was measured using the HTRF system purchased from Cisbio as follows. For an EGFR mutant enzyme, the EGFR del19 enzyme was a recombinant protein purchased from Carna Biosciences, and the EGFR A763_Y764insFHEA enzyme was a recombinant protein purchased from SignalChem, respectively.
as §1, with “An” for “In addition thereto, the”, “the” for “the activity”, “EGFR activity” for “HER2 A775_G776insYVMA mutation”, “EGFR” for “HER2 A775_G776insYVMA”
(§3) The enzyme reaction begins by first mixing component 1 and component 2 and then adding component 3 thereto. After the reaction at 37° C. for 2 hours, […] of a measurement solution consisting of streptavidin-XL665 and a europium-labeled anti-phosphotyrosine antibody purchased from Cisbio was added to the enzyme reaction solution and reacted at room temperature for 1 hour. Finally, the ratio of fluorescence values at 615 nm and 665 nm was measured using Perkin-Elmer's Envision instrument to calculate enzyme activity and confirm the inhibitory ability of the compounds. The measured values at 7 compound concentrations were analyzed using the Prism program (version 5.01, Graphpad Software, Inc.), and the IC50 (μM) values, which are measures of the compounds' inhibitory activity, were calculated.

EGFR A763_Y764insFHEA = EGFR A763_Y764insFHEA (Homo sapiens (Human), UniProt P00533, INS763FHEA); assay: HTRF inhibitory activity against EGFR mutant enzyme (EGFR A763_Y764insFHEA); assay type: biochemical; settings: recombinant enzyme, 37° C. for 2 hours
Method: as §2
as §1, with “An” for “In addition thereto, the”, “the” for “the activity”, “EGFR activity” for “HER2 A775_G776insYVMA mutation”, “EGFR” for “HER2 A775_G776insYVMA”
as §3

[1] = tested on: Ba/F3 EGFR D770_N771insSVD; assay: Growth inhibition of Ba/F3 EGFR mutant cells (CellTiter-Glo); assay type: cell-based; settings: Ba/F3 EGFR-D770-N771ins_SVD, 72 hours
Method: (§4) The activity of the compounds of the present invention against Ba/F3 EGFR V769_D770insASV and Ba/F3 EGFR D770_N771insSVD mutant cell lines was measured using the CellTiter-Glo system purchased from Promega as follows. CellTiter-Glo assay is a method to measure cell viability by monitoring ATP present in cells. Ba/F3 EGFR V769_D770insASV and Ba/F3 EGFR D770_N771insSVD mutant cell lines were purchased from Crown Biosciences. Ba/F3 EGFR V769_D770insASV and Ba/F3 EGFR D770_N771insSVD mutant cell lines were cultured in RPMI containing 10% FBS and 1% penicillin-streptomycin with 1 μg/mL of puromycin in a 5% CO2 incubator at 37° C.
(§5) The analysis of the ability of the compounds to inhibit the growth of EGFR mutant cells was performed according to the following method. 1,000 cells/100 μL were seeded in a 96-well cell culture plate, and 24 hours thereafter, the compounds represented by Formula 1 were treated with 0 μM, 0.01 μM, 0.03 μM, 0.1 μM, 0.3 μM, 1 μM, 3 μM, and 10 μM. After incubating for 72 hours, the plate treated with the compounds were left at room temperature for 30 minutes, 100 μL of a reagent was further added thereto, and then shaken at room temperature for 10 minutes. Finally, using equipment, the ratio of […] was measured to confirm the cell growth inhibition ability of the compounds. The measured values at 8 compound concentrations were analyzed using the Prism program (version 5.01, Graphpad Software, Inc.), and the IC50 (μM) values, which are measures of the compounds' inhibitory ability, were calculated.

[2] = tested on: Ba/F3 EGFR V769_D770insASV; assay: as above; assay type: cell-based; settings: 72 hours
Method: as §4, §5

[3] = tested on: Ba/F3 HER2 A775_G776insYVMA; assay: Growth inhibition of Ba/F3 HER2 mutant cells (CellTiter-Glo); assay type: cell-based; settings: Mus musculus, BaF3, 72 hours
Method: as §4, with “HER2 A775_G776insYVMA” for “EGFR V769_D770insASV”, “HER2 G776delinsVC” for “EGFR D770_N771insSVD”, “a” for “a 5%”
as §5, with “HER2” for “EGFR”, “reacting” for “incubating”, “was” for “was further”

Chain of EGFR A763_Y764insFHEA (P00533 other isoform, or with tags, fused parts or gaps del 1-694/ins FHEA behind 763 limits assumed): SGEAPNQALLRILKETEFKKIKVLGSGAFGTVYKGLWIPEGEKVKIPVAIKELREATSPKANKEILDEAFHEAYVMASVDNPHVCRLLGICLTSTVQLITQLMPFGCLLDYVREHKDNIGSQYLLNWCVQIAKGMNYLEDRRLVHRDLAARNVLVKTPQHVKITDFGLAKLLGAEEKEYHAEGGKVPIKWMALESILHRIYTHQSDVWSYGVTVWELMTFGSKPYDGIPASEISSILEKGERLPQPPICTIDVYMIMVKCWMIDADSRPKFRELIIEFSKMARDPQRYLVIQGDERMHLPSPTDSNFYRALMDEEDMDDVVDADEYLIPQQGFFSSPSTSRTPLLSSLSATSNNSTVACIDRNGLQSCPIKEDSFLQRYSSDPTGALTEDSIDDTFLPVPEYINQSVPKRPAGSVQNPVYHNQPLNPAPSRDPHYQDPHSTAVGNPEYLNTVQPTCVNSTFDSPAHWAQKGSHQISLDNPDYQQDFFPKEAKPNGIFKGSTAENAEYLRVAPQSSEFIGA
Chain of HER2 A775_G776insYVMA (P04626 other isoform, or with tags, fused parts or gaps del 1-675/ins YVMA behind 775 limits assumed): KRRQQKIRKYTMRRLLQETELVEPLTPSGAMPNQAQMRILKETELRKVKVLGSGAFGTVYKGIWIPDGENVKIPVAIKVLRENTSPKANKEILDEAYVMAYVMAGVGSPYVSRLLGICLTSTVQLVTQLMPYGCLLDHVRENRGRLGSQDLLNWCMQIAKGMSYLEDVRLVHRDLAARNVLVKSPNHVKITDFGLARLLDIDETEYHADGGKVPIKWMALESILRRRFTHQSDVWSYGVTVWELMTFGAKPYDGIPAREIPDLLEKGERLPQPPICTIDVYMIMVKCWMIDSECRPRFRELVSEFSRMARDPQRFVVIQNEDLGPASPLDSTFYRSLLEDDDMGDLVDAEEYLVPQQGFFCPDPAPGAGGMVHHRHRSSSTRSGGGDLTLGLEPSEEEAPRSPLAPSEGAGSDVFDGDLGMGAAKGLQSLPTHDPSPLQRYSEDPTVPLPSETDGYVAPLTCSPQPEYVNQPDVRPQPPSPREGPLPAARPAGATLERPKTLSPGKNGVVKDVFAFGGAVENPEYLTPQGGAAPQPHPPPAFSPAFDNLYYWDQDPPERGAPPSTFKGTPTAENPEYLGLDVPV
Chain of EGFR del19 (P00533 other isoform, or with tags, fused parts or gaps del 1-668/del 746-750 limits assumed): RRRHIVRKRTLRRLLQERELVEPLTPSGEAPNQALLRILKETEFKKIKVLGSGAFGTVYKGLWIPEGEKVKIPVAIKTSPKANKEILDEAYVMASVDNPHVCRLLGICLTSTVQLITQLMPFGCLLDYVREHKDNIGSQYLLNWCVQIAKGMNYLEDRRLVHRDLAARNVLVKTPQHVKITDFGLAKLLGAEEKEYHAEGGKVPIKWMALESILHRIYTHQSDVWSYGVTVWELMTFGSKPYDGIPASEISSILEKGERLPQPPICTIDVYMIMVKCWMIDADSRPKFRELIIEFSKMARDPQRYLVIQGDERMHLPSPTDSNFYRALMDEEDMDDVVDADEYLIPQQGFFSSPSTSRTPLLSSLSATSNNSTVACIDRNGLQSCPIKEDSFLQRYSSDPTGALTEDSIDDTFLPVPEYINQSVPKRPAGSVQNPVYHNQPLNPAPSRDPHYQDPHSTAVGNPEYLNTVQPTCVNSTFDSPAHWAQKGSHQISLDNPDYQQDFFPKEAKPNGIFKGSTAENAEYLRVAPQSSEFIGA

SMILES	IC50 (HER2 A775_G776insYVMA) [nM]	IC50 (EGFR del19) [nM]	IC50 (EGFR A763_Y764insFHEA) [nM]	IC50 [1] [nM]	IC50 [2] [nM]	IC50 [3] [nM]
C=CC(=O)Nc1cc(Nc2ncc(Cl)c(Nc3cccc4c3N(S(C)(=O)=O)CC4)n2)c(OC)cc1N(C)CCN1CCC1 [Example 80, N-(2-((2-(azetidin-1-yl)ethyl)(methyl)amino)-5-((5-chloro-4-((1-(methylsulfonyl)indolin-7-yl)amino)pyrimidin-2-yl)amino)-4-methoxyphenyl)acrylamide]	1	< 1	< 1	< 10	< 10	
C=CC(=O)Nc1cc(Nc2ncc(Cl)c(Nc3ccccc3NS(=O)(=O)c3ccccc3)n2)c(OC)cc1N(C)CCN(C)C [Example 2, N-(5-((5-chloro-4-((2-(phenylsulfonamido)phenyl)amino)pyrimidin-2-yl)amino)-2-((2-(dimethylamino)ethyl)(methyl)amino)-4-methoxyphenyl)acrylamide]	310	< 1	3			30 to 50
C=CC(=O)Nc1cc(Nc2ncc(Cl)c(Nc3cccc4c3N(S(C)(=O)=O)CC4)n2)c(OC)cc1N(C)CCN1CCCCC1 [Example 72, N-(5-((5-chloro-4-((1-(methylsulfonyl)indolin-7-yl)amino)pyrimidin-2-yl)amino)-4-methoxy-2-(methyl(2-(piperidin-1-yl)ethyl)amino)phenyl)acrylamide]	1	< 1	< 1	< 10	10 to 30	
C=CC(=O)Nc1cc(Nc2ncc(Cl)c(Nc3ccc(C)cc3N(C)S(C)(=O)=O)n2)c(OC)cc1N(C)CCN1CCCC1 [Example 76, N-(5-((5-chloro-4-((4-methyl-2-(N-methylmethylsulfonamido)phenyl)amino)pyrimidin-2-yl)amino)-4-methoxy-2-(methyl(2-(pyrrolidin-1-yl)ethyl)amino)phenyl)acrylamide]	1	< 1	< 1	< 10	< 10	
C=CC(=O)Nc1cc(Nc2ncc(F)c(Nc3ccccc3NS(C)(=O)=O)n2)c(OC)cc1N(C)CCN(C)C [Example 11, N-(2-((2-(dimethylamino)ethyl)(methyl)amino)-5-((5-fluoro-4-((2-(methylsulfonamido)phenyl)amino)pyrimidin-2-yl)amino)-4-methoxyphenyl)acrylamide]	71	< 1	1		> 100	> 100
C=CC(=O)Nc1cc(Nc2nccc(Nc3ccccc3NS(C)(=O)=O)n2)c(OC)cc1N(C)CCN(C)C [Example 7, N-(2-((2-(dimethylamino)ethyl)(methyl)amino)-4-methoxy-5-((4-((2-(methylsulfonamido)phenyl)amino)pyrimidin-2-yl)amino)phenyl)acrylamide]	280	< 1	5			30 to 50
C=CC(=O)Nc1cc(Nc2nccc(Nc3ccccc3NS(=O)(=O)c3ccccc3)n2)c(OC)cc1N(C)CCN(C)C [Example 6, N-(2-((2-(dimethylamino)ethyl)(methyl)amino)-4-methoxy-5-((4-((2-(phenylsulfonamido)phenyl)amino)pyrimidin-2-yl)amino)phenyl)acrylamide]	1200	7	20			30 to 50
C=CC(=O)Nc1cc(Nc2ncc(Cl)c(Nc3ccccc3NS(=O)(=O)c3ccc(C)cc3)n2)c(OC)cc1N(C)CCN(C)C [Example 3, N-(5-((5-chloro-4-((2-((4-methylphenyl)sulfonamido)phenyl)amino)pyrimidin-2-yl)amino)-2-((2-(dimethylamino)ethyl)(methyl)amino)-4-methoxyphenyl)acrylamide]	450	< 1	2			30 to 50
C=CC(=O)Nc1cc(Nc2ncc(Cl)c(Nc3ccccc3NS(C)(=O)=O)n2)c(OC)cc1N(C)CCN1CCCC1 [Example 21, N-(5-((5-chloro-4-((2-(methylsulfonamido)phenyl)amino)pyrimidin-2-yl)amino)-4-methoxy-2-(methyl(2-(pyrrolidin-1-yl)ethyl)amino)phenyl)acrylamide]	46	1	3			30 to 50
C=CC(=O)Nc1cc(Nc2ncc(Cl)c(Nc3ccccc3NS(=O)(=O)CCC)n2)c(OC)cc1N(C)CCN(C)C [Example 1, N-(5-((5-chloro-4-((2-(propylsulfonamido)phenyl)amino)pyrimidin-2-yl)amino)-2-((2-(dimethylamino)ethyl)(methyl)amino)-4-methoxyphenyl)acrylamide]	140	< 1	4			30 to 50
C=CC(=O)Nc1cc(Nc2ncc(C)c(Nc3ccccc3NS(C)(=O)=O)n2)c(OC)cc1N(C)CCN(C)C [Example 16, N-(2-((2-(dimethylamino)ethyl)(methyl)amino)-4-methoxy-5-((5-methyl-4-((2-(methylsulfonamido)phenyl)amino)pyrimidin-2-yl)amino)phenyl)acrylamide]	51	< 1	2		> 100	> 100
